Results as given in US8057800B2, “Immunointeractive molecules and uses thereof” (Circassia Limited, priority 2004, dated 2011).

Columns and labels:
[1] = system: peanut specific TCL generated using CPE; assay: CPE driven peanut specific TCL proliferation assay (3H-thymidine); assay type: cell-based, human; details: for responders with a proliferative response to the peptide / proliferative response: CPE driven TCL; for responders with a proliferative response to the peptide: 8 responders; for subjects responding to the peptide who also had a proliferative response to Ara h 2: subjects with a response to Ara h 2 (19-38) and Ara h 2 (28-47); for proliferative response: peptide 10 μg/ml, stimulation index ≧2.5
Method: FIG. 4 is a graphical representation of peanut allergic donor peanut specific TCL proliferative responses to Ara h 2 peptides, Ara h 2 and crude peanut extract. Peanut specific TCL (5×10^4 cells/ml) from individuals with peanut allergy generated using CPE were stimulated with Ara h 2 peptides at a concentration of 10 μg/ml in the presence of autologous irradiated PBMC as APC (5×10^4 cells/ml) in 3 day cultures.
(§1) Freshly harvested or frozen stored PBMC were cultured in 24-well plates (Greiner Biotechnik, Germany) at 2.5×10^6 cells per well (2 ml volume) in complete medium with antigen at an optimised concentration for 7 days at 37° C. in a 5% CO2 humidified incubator. In the case of frozen PBMC the cells were first washed once in wash medium, 1 in 10 dilution of PBMC to medium, and pelleted at 329×g for 10 minutes to remove DMSO. At day 7 cells were washed once and resuspended at 1 to 1.5×10^6/ml and added together with 1×10^6/ml washed irradiated (3000 rads; Gammacell 1000 Elite, Nordion International, Inc.) autologous PBMC (from liquid nitrogen stocks) and antigen into fresh 24-well plates. At day 2 following restimulation, 25 U/ml of recombinant human interleukin-2 (rIL-2) was added and at day 4, 1 ml of culture medium was removed and replaced with fresh medium and 25 U/ml rIL-2. For some experiments due to low cell numbers at 2 weeks, 3 week TCLs were generated by restimulation with antigen and rIL-2 as above for a further week. In all experiments T cells were rested for 6 to 7 days after the last addition of antigen and APC.
(§2) 5.0×10^4/well TCL cells were cultured in triplicate in 96-well U bottom plates (Linbro ICN Biomedicals, USA) with antigen or medium alone and rIL-2 as negative and positive controls respectively, in the presence of autologous irradiated (3000 rads) PBMC (5.0×10^4/well). Cultures were incubated for 3 days. In the last 16 hours of culture, wells were pulsed with ^3H-thymidine (1 μCi/well), then harvested onto printed glass fibre filters with a 96-well automatic cell harvester. ^3H-thymidine incorporation was measured by liquid scintillation spectroscopy.
To determine the T cell epitopes of Ara h 2, oligoclonal CPE-specific TCL were generated from PBMC of 21 peanut-allergic donors and 5 non-peanut allergic donors, and stimulated with a nested set of synthetic peptides spanning the entire Ara h 2 sequence (FIG. 1). A peptide concentration of 10 μg/ml was determined to be the optimal stimulating concentration within proliferation assays. Optimisation included assays at both 10 μg/ml and 30 μg/ml. […] In this setting, and because of the limited availability of donor cells and the cost of commercially prepared peptides, the lower concentration was used.
Several approaches to the production of TCL were used, including stimulation of cells with two and three pulses of CPE separated by 7 days each, two pulses of CPE with a third pulse of rAra h 2, again separated by 7 days each, and three stimulations with rAra h 2. Responses by TCL receiving two CPE stimulations were in general lower than those receiving three stimulations, such that it was felt the sensitivity of the assay may be compromised. […] This lead to the use of TCL stimulated with 3 pulses of CPE, each separated by 7 days for all subjects tested.

[2] = system: peanut specific TCL generated using CPE and rAra h 2; assay: rAra h 2 pulsed peanut specific TCL proliferation assay (3H-thymidine); assay type: cell-based, human
Method: FIG. 5 is a graphical representation of peanut allergic donor peanut specific Ara h 2 pulsed TCL proliferative responses Ara h 2 peptides, Ara h 2 and crude peanut extract. Peanut specific TCL (5×10^4 cells/ml) from individuals with peanut allergy were generated using CPE and rAra h 2, then stimulated with Ara h 2 peptides at a concentration of […] in the presence of autologous irradiated PBMC as APC (5×10^4 cells/ml) in 3 day cultures.
as §1
as §2, with “Cultures were incubated for 3 days.” left out, “spectroscopy. […]” for “spectroscopy.”

[3] = system: peanut specific TCL generated using CPE; assay: Cytokine ELISA (IL-5, IFN-γ) of CPE driven TCL supernatants; assay type: cell-based, human; details: for IL-5 production: 48 hours
Method: FIG. 7 is a graphical representation of peanut allergic donor peanut specific Ara h 2 pulsed TCL cytokine responses to Ara h 2 peptides, Ara h 2 and crude peanut extract. Peanut specific TCLs (5×10^4/ml) from individuals with peanut allergy were generated using CPE, then stimulated with Ara h 2 peptides at a concentration of 10 ug/ml in the presence of autologous irradiated PBMC as APC (5×10^4/ml) in 3 day cultures. Cytokine supernatants were collected after 48 hours culture and assayed by specific ELISA. […] Peptides associated with a significant proliferative response are shaded grey.
Supernatants (70-75 μl/well of triplicate cultures) were harvested and pooled from T cell proliferation assay cultures at 48 hours (IL-5, IFN-γ) and frozen at −80° C. Harvested supernatants were replaced with warm (37° C.) complete medium and cells subsequently pulsed and harvested as described previously.
IL-5 and IFN-γ levels in culture supernatants were measured by sandwich ELISA. White Costar (Corning, USA) ELISA plates were coated with capture mAb (IL-5 and IFN-γ, 2 μg/ml; 30 μl/well) diluted in binding buffer overnight at 4° C. Plates were then washed three times in PBS/0.05% Tween (wash buffer) and wells blocked with 100 μl/well of 1% BSA/PBS (blocking buffer) for 1 hour at room temperature. Following three washes in wash buffer, 30 μl/well of serial dilutions of recombinant human IL-5 or IFN-γ (5000-0.15 pg/ml) in blocking buffer-0.05% Tween or culture supernatants were added and incubated overnight at 4° C. Following four washes in wash buffer, plates were incubated with biotinylated detection mAb (IL-5, 1 μg/ml; IFN-γ, 0.5 μg/ml; 50 μl/well) diluted in blocking buffer for 1 hour at room temperature. Plates were then washed 6 times in wash buffer and incubated with a 1 in 2000 dilution of streptavidin-peroxidase (50 μl/well) in blocking buffer for 45 minutes at room temperature. Following 8 washes in wash buffer, 100 μl/well of freshly prepared chemiluminescent substrate (Perkin-Elmer, USA) was used and plates read in a Lumicount microplate glow luminometer (Packard Instrument Company, USA), 0.5 seconds/well, automatic sensitivity setting. Standard curve construction and determination of unknown cytokine levels was performed using Packard Instruments software. IL-5 and IFN-γ ELISA sensitivities were 2 pg/ml and 4 pg/ml, respectively.
To identify the phenotype of T cells associated with a peptide proliferative response, supernatants were collected from TCL cultures 48 hours after stimulation with peptides and assayed for the presence of IL-5 and IFN-γ. For each donor, peptides associated with a proliferative response and two peptides not associated with a proliferative response were tested. […] In general, cytokine responses were at the lower limits of detection. […]

serum IgE = assay: Western blot of CPE for serum IgE reactivity to Ara h 2; assay type: binding, human; details: western blotting of CPE
Excerpt: Following resolution of CPE on a 14% polyacrylamide gel, proteins were transferred to nitrocellulose and probed with sera from the study population, and non-peanut allergic controls. IgE was detected using HRP conjugated mouse anti-human IgE and enhanced chemiluminescence.
SDS-PAGE gels were assembled into stacks in transfer buffer as follows: blotting paper, nitrocellulose membrane, gel and blotting paper. Sample proteins and pre-stained molecular weight markers were electrophoretically transferred from SDS-PAGE gels to nitrocellulose at 30 volts for 3 hours in an Xcell II blot module (Novex, USA). Following transfer, the nitrocellulose membrane was stained with Ponceau S to ensure adequate protein transfer, then cut into strips and blocked by incubation with 10% milk powder-PBS for 1 hour at room temperature. The blocked nitrocellulose membrane was then washed in PBS and incubated with sample sera diluted 1 in 5 with 1% milk powder-PBS-Tween for all proteins except for Ara h 1, whereupon a 1 in 10 serum dilution was used. Incubation took place overnight, following which the blot was washed 3 times in PBS-Tween, 5 minutes/wash. […] The nitrocellulose was then photographed and analysed using Labworks image acquisition software (UVP Laboratory Products, UK). […]

specific IgE = details: cited from earlier work

RQQWELQGDRRCQSQLERAN (Peanut Ara h 2) [Ara h 2 (19-38), Ara h 2 20-mer peptide, residues 19-38]
responders with a proliferative response to the peptide [1]: 3 of the 8 | subjects demonstrating their greatest response to this peptide ([1]; response magnitude ranked for each subject): 3 | subjects responding to the peptide who also had a proliferative response to Ara h 2 [1]: 60% | reactivity of subject 10 ([2]; subject 10, both types of TCL preparation): reacted | magnitude of response relative to other peptides ([2]; subject 10, rAra h 2 pulsed TCL): less than that generated by stimulation with Ara h 2 (37-56) and Ara h 2 (46-65) | IL-5/IFN-γ ratio ([3]; subject 10, CPE driven TCL): ~7 | IL-5 production ([3]; subject 10, CPE driven TCL): 540 pg/mL | IL-5/IFN-γ ratio ([3]; subject 21, CPE driven TCL): approximately 20 | IL-5 production ([3]; subject 21, CPE driven TCL): 2054 pg/mL

RCMCEALQQIMENQSDRLQG (Peanut Ara h 2) [Ara h 2 (100-119), Ara h 2 20-mer peptide, residues 100-119]
proliferative response [1]: inducing proliferative responses

PYDRRGAGSSQHQERCCNEL (Peanut Ara h 2) [Ara h 2 (73-92), Ara h 2 20-mer peptide, residues 73-92]
responders with a proliferative response to the peptide [1]: 3 of the 8 | pattern of reactivity of subject 6 ([2]; subject 6, rAra h 2 pulsed TCL): did not include

RRCQSQLERANLRPCEQHLM (Peanut Ara h 2) [Ara h 2 (28-47), Ara h 2 20-mer peptide, residues 28-47]
proliferative response [1]: inducing proliferative responses | subjects responding to the peptide who also had a proliferative response to Ara h 2 [1]: 60%

B1: Ara h 2: major peanut allergen, a glycoprotein of the conglutin seed storage family (protein)
chain: LTILVALALFLLAAHASARQQWELQGDRRCQSQLERANLRPCEQHLMQKIQRDEDSYERDPYSPSQDPYSPSPYDRRGAGSSQHQERCCNELNEFENNQRCMCEALQQIMENQSDRLQGRQQEQQFKRELRNLPQQCGLRAPQRCDLDVESGGRDRY
modifications: Peanut Ara h 2
notes: major peanut allergen, a glycoprotein of the conglutin seed storage family
peanut allergic subjects possessing IgE reactive to Ara h 2 doublet (serum IgE; 22 peanut allergic subjects): 20 out of the 22 | IgE binding to Ara h 2 in non-peanut allergic controls (serum IgE; non-peanut allergic controls): weak and potentially non-specific | sera reactive with Ara h 2 (specific IgE; Burks et al, 1992): 6 out of 6 | subjects with specific IgE to purified natural Ara h 2 (specific IgE; de Jong et al. 1998): approximately 78% | subjects possessing specific IgE to Ara h 2 (specific IgE; western blotting of crude peanut extract, Clarke et al. 1998): 71% | subjects possessing IgE towards the recombinant form (specific IgE; western blotting, Kleber-Janke et al. 1999): 85%
